Data published in patent US7138361B2, “Herbicidal heterocycles” (E. I. du Pont de Nemours and Company, priority 2000, dated 2006).

Legend:
Type in all cases: in vivo
[1] = test system: morning glory (Ipomoea hederacea); assay: Test B postemergence; details: 13 to 15 days
Outline: (§1)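 Greenhouse test: chemicals are formulated in a surfactant-containing non-phytotoxic solvent and applied either preemergence to planted seeds or postemergence to plants 2 to 18 cm tall. Response is rated visually versus controls after 13 to 15 days, 0 meaning no effect and 100 complete control.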

[2] = test system: lambsquarters (Chenopodium album); assay: Test B postemergence; details: 13 to 15 days
Outline: as §1

[3] = test system: giant foxtail (Setaria faberii); assay: Test B postemergence; details: 13 to 15 days
Outline: as §1

[4] = test system: Surinam grass (Brachiaria decumbens); assay: Test B postemergence; details: 13 to 15 days
Outline: as §1

[5] = test system: velvetleaf (Abutilon theophrasti); assay: Test B postemergence; details: 13 to 15 days
Outline: as §1

[6] = test system: blackgrass (Alopecurus myosuroides); assay: Test B postemergence; details: 13 to 15 days
Outline: as §1

[7] = test system: crabgrass (Digitaria sanguinalis); assay: Test B postemergence; details: 13 to 15 days
Outline: as §1

[8] = test system: cocklebur (Xanthium strumarium); assay: Test B postemergence; details: 13 to 15 days
Outline: as §1

[9] = test system: pigweed (Amaranthus retroflexus); assay: Test B postemergence; details: 13 to 15 days
Outline: as §1

[10] = test system: kochia (Kochia scoparia); assay: Test C postemergence
Excerpt: (§2) Seeds of plant species selected from bermudagrass (Cynodon dactylon), Surinam grass (Brachiaria decumbens), cocklebur (Xanthium strumarium), corn (Zea mays), crabgrass (Digitaria sanguinalis), woolly cupgrass (Eriochloa villosa), giant foxtail (Setaria faberii), goosegrass (Eleusine indica), johnsongrass (Sorghum halepense), kochia (Kochia scoparia), lambsquarters (Chenopodium album), morningglory (Ipomoea hederacea), yellow nutsedge (Cyperus esculentus), pigweed (Amaranthus retroflexus), common ragweed (Ambrosia elatior), soybean (Glycine max) and velvetleaf (Abutilon theophrasti) were planted and treated preemergence with test chemicals formulated in a non-phytotoxic solvent mixture which included a surfactant.
(§3) At the same time, plants selected from these crop and weed species and also winter barley (Hordeum vulgare), blackgrass (Alopecurus myosuroides), canary grass (Phalaris minor), chickweed (Stellaria media), downy brome (Bromus tectorum), green foxtail (Setaria viridis), Italian ryegrass (Lolium multiflorum), wheat (Triticum aestivum), wild oat (Avena fatua) and windgrass (Apera spica-venti) were treated with postemergence applications of some of the test chemicals formulated in the same manner. Plants ranged in height from 2 to 18 cm (1- to 4-leaf stage) for postemergence treatments. Plant species in the flooded paddy test consisted of rice (Oryza saliva), smallflower flatsedge (Cyperus difformis), duck salad (Heteranthera limosa) and barnyardgrass (Echinochloa crus-galli) grown to the 2-leaf stage for testing. Treated plants and controls were maintained in a greenhouse for 12 to 14 days, after which time all species were compared to controls and visually evaluated. Plant response ratings, summarized in Table C, are based on a scale of 0 to 100 where 0 is no effect and 100 is complete control. A dash (-) response means no test result.

[11] = test system: lambsquarters (Chenopodium album); assay: Test C postemergence
Excerpt: as §2, §3

[12] = test system: pigweed (Amaranthus retroflexus); assay: Test C postemergence
Excerpt: as §2, §3

[13] = test system: Sunflower; assay: Test C preemergence; details: scale 0 to 100
[14] = Rate 125 g/ha, scale 0 (no effect) to 100 (complete control)
[15] = Rate 500 g/ha, scale 0 to 100, 0 is no effect, 100 is complete control
[16] = Rate 125 g/ha, scale 0 to 100, 0 no effect, 100 complete control
[17] = Rate 250 g/ha, scale 0 to 100 (0 no effect, 100 complete control)
[18] = Rate 500 g/ha, scale 0 to 100 (0 no effect, 100 complete control)

Row | SMILES | Plant response rating, Morningglory [1, 14] | Plant response rating, Morningglory [1, 15] | Plant response rating, Lambsquarters [2, 14] | Plant response rating, Lambsquarters [2, 15] | Plant response rating, Foxtail, Giant [3, 14] | Plant response rating, Foxtail, Giant [3, 15] | Plant response rating, Surinam grass [4, 14] | Plant response rating, Surinam grass [4, 15] | Plant response rating, Velvetleaf [5, 14] | Plant response rating, Velvetleaf [5, 15] | Plant response rating, Blackgrass [6, 14] | Plant response rating, Blackgrass [6, 15] | Plant response rating, Crabgrass [7, 14] | Plant response rating, Crabgrass [7, 15] | Plant response rating, Cocklebur [8, 14] | Plant response rating, Cocklebur [8, 15] | Plant response rating, Pigweed [9, 14] | Plant response rating, Pigweed [9, 15] | Plant response rating, Kochia ([10]; Rate 62 g/ha, scale 0 to 100) | Plant response rating, Kochia [10, 16] | further results
1 | O=C1C(n2ccc(C3CCC3)n2)SCN1c1cccc(OC(F)(F)F)c1 (centres unmarked) [Compound 38] | 10 | 20 | 80 | 90 | 30 | 80 | 0 | 0 | 0 | 70 | 0 | 0 | 60 | 100 | 40 | 80 | 60 | 80 | 60 | 60 | Plant response rating, Kochia [10, 17]: 70; Plant response rating, Kochia [10, 18]: 70; Plant response rating, Lambsquarters ([11]; Rate 62 g/ha, scale 0 to 100): 30; Plant response rating, Lambsquarters [11, 16]: 30; Plant response rating, Lambsquarters [11, 17]: 70; Plant response rating, Lambsquarters [11, 18]: 70; Plant response rating, Pigweed ([12]; Rate 62 g/ha, scale 0 to 100): 0; Plant response rating, Pigweed [12, 16]: 0; Plant response rating, Pigweed [12, 17]: 0; Plant response rating, Pigweed [12, 18]: 0
2 | CCC(C)c1ccn(C2CCN(c3ccc(C)c(OC)c3)C2=O)n1 (centres unmarked) [Compound 80] | 40 | 90 | 10 | 90 | 0 | 0 | 0 | 0 | 40 | 70 | 0 | 0 | 0 | 40 | 70 | 80 | 70 | 80 | 0 | 0 | Plant response rating, Kochia [10, 17]: 30; Plant response rating, Kochia [10, 18]: 50; Plant response rating, Lambsquarters ([11]; Rate 62 g/ha, scale 0 to 100): 10; Plant response rating, Lambsquarters [11, 18]: 90; Plant response rating, Pigweed ([12]; Rate 62 g/ha, scale 0 to 100): 20; Plant response rating, Pigweed [12, 16]: 40; Plant response rating, Pigweed [12, 18]: 70
3 | CCC(CC)c1ccn(C2OCN(c3cccc(OC(F)(F)F)c3)C2=O)n1 (centres unmarked) [Compound 68] | 0 | 0 | 100 | 100 | 20 | 40 | 20 | 30 | 0 | 20 | 0 | 0 | 90 | 100 | 50 | 80 | 0 | 0 | 50 | 70 | Plant response rating, Kochia [10, 17]: 70; Plant response rating, Kochia [10, 18]: 70; Plant response rating, Lambsquarters ([11]; Rate 62 g/ha, scale 0 to 100): 60; Plant response rating, Lambsquarters [11, 16]: 80; Plant response rating, Lambsquarters [11, 17]: 80; Plant response rating, Lambsquarters [11, 18]: 100; Plant response rating, Pigweed ([12]; Rate 62 g/ha, scale 0 to 100): 60; Plant response rating, Pigweed [12, 16]: 70; Plant response rating, Pigweed [12, 17]: 70; Plant response rating, Pigweed [12, 18]: 100
4 | CC(C)(C)c1ccn(C2CCN(c3cccc([S+]([O-])C(F)(F)F)c3)C2=O)n1 (centres unmarked) [Compound 101] | – | 0 | – | 0 | 0 | 0 | 0 | 0 | – | 0 | 0 | 0 | 0 | 0 | – | – | – | 0 | – | – | Plant response rating, Sunflower ([13]; Rate 31 g/ha): 0; Plant response rating, Sunflower ([13]; Rate 62 g/ha): 0
5 | CCC(C)c1ccn(C2SCN(c3cccc(OC(F)(F)F)c3)C2=O)n1 (centres unmarked) [Compound 40] | 10 | 20 | 70 | 90 | 70 | 90 | 0 | 0 | 0 | 0 | 0 | 0 | 60 | 90 | 30 | 50 | 40 | 80 | 20 | 50 | Plant response rating, Kochia [10, 17]: 60; Plant response rating, Kochia [10, 18]: 70; Plant response rating, Lambsquarters ([11]; Rate 62 g/ha, scale 0 to 100): 20; Plant response rating, Lambsquarters [11, 16]: 40; Plant response rating, Lambsquarters [11, 17]: 50; Plant response rating, Lambsquarters [11, 18]: 70; Plant response rating, Pigweed ([12]; Rate 62 g/ha, scale 0 to 100): 0; Plant response rating, Pigweed [12, 16]: 0; Plant response rating, Pigweed [12, 17]: 50; Plant response rating, Pigweed [12, 18]: 50
6 | CC(C)c1ccn(C2SCN(c3cccc(OC(F)F)c3)C2=O)n1 (centres unmarked) [Compound 44] | 0 | 0 | 20 | 60 | 0 | 60 | 0 | 0 | 0 | 0 | 0 | 0 | 0 | 40 | 20 | 70 | 0 | 0 | – | – | –
7 | O=C1C(n2ccc(C3CCC3)n2)SCN1c1cccc(OC(F)F)c1 (centres unmarked) [Compound 45] | 0 | 0 | 0 | 0 | 0 | 0 | 0 | 0 | 0 | 0 | 0 | 0 | 0 | 0 | 20 | 40 | 0 | 0 | – | – | –
8 | CC(C)Oc1cccc(N2CCC(n3ccc(C(C)C)n3)C2=O)c1 (centres unmarked) [Compound 82] | 0 | 10 | 20 | 70 | 0 | 0 | 0 | 0 | 0 | 0 | 0 | 0 | 0 | 10 | 0 | 20 | 0 | 10 | – | – | –
